Measurements as given in ChEMBL document CHEMBL1649526, “Selection of heterogeneous vancomycin-intermediate Staphylococcus aureus by imipenem” (2009).
Converted amounts (≈) assume the structure as drawn. Positions of bridges follow the written chain, without caps; N, C: chain ends. Non-standard residues stand in square brackets, D forms with d. Residues, ends and D or L forms follow the SMILES beside them. *: point of attachment. Ileψ(thiazoline)Cys = CC[C@H](C)[C@H](N)C1=N[C@H](C(=O)*)CS1; dOrn = NCCC[C@@H](N)C(=O)O

What was measured:
Type in all cases: functional
Staphylococcus aureus [1] = test: Antibacterial activity against hetero-Methicillin-resistant and tetracycline-resistant Staphylococcus aureus deltaIP by Etest method
Staphylococcus aureus [2] = test: Antibacterial activity against homo-Methicillin-resistant and tetracycline-resistant Staphylococcus aureus H14 harboring vraS S329L mutant gene by Etest method
Staphylococcus aureus [3] = test: Antibacterial activity against methicillin-susceptible, tetracycline-resistant and chloramphenicol-resistant Staphylococcus aureus deltaIP-KVR by Etest method
Staphylococcus aureus [4] = test: Antibacterial activity against methicillin-susceptible, tetracycline-resistant and chloramphenicol-resistant Staphylococcus aureus H14-KVR by Etest method
Staphylococcus aureus [5] = test: Antibacterial activity against hetero-Methicillin-resistant and tetracycline-resistant and rifampicin-resistant Staphylococcus aureus deltaIP-rifR harboring RpoB H481Y mutant gene by Etest method
Staphylococcus aureus [6] = test: Antibacterial activity against homo-Methicillin-resistant and tetracycline-resistant Staphylococcus aureus deltaIP::vraSH14 harboring vraSH14 S329L mutant gene by Etest method
Staphylococcus aureus [7] = test: Antibacterial activity against homo-Methicillin-resistant and tetracycline-resistant and rifampicin-resistant Staphylococcus aureus deltaIP-rifR::vraSH14 by Etest method
Staphylococcus aureus [8] = test: Antibacterial activity against hetero-vancomycin-intermediate Staphylococcus aureus Mu3 by Etest method

Compound	MIC (Staphylococcus aureus [1]) [µg/mL]	MIC (Staphylococcus aureus [2]) [µg/mL]	MIC (Staphylococcus aureus [3]) [µg/mL]	MIC (Staphylococcus aureus [4]) [µg/mL]	MIC (Staphylococcus aureus [5]) [µg/mL]	MIC (Staphylococcus aureus [6]) [µg/mL]	MIC (Staphylococcus aureus [7]) [µg/mL]	MIC (Staphylococcus aureus [8]) [µg/mL]
C[C@@H](O)[C@H]1C(=O)N2C(C(=O)O)=C(SCCNC=N)C[C@H]12 [IMIPENEM ANHYDROUS]	0.75 (≈ 2.51 µM)	> 32	0.19 (≈ 0.635 µM)	0.19 (≈ 0.635 µM)	1 (≈ 3.34 µM)	> 32	> 32	> 32
CN[C@H](CC(C)C)C(=O)N[C@H]1C(=O)N[C@@H](CC(N)=O)C(=O)N[C@H]2C(=O)N[C@H]3C(=O)N[C@H](C(=O)N[C@H](C(=O)O)c4cc(O)cc(O)c4-c4cc3ccc4O)[C@H](O)c3ccc(c(Cl)c3)Oc3cc2cc(c3O[C@@H]2O[C@H](CO)[C@@H](O)[C@H](O)[C@H]2O[C@H]2C[C@](C)(N)[C@H](O)[C@H](C)O2)Oc2ccc(cc2Cl)[C@H]1O [VANCOMYCIN]			0.75 (≈ 0.518 µM)	0.75 (≈ 0.518 µM)			3 (≈ 2.07 µM)	3 (≈ 2.07 µM)
Cc1onc(-c2ccccc2)c1C(=O)N[C@@H]1C(=O)N2[C@@H]1SC(C)(C)[C@@H]2C(=O)O [OXACILLIN]	6 (≈ 14.9 µM)	> 256	1.5 (≈ 3.74 µM)	1.5 (≈ 3.74 µM)	5 (≈ 12.5 µM)	> 256	> 256	> 256
CC[C@H](C)[C@H](N)C1=N[C@H](C(=O)N[C@@H](CC(C)C)C(=O)N[C@H](CCC(=O)O)C(=O)N[C@H](C(=O)N[C@H]2CCCCNC(=O)[C@H](CC(N)=O)NC(=O)[C@@H](CC(=O)O)NC(=O)[C@H](Cc3cnc[nH]3)NC(=O)[C@@H](Cc3ccccc3)NC(=O)[C@H]([C@@H](C)CC)NC(=O)[C@@H](CCCN)NC2=O)[C@@H](C)CC)CS1 [BACITRACIN] ({Ileψ(thiazoline)Cys}-L[dE]IK[dOrn]I[dF]H[dD]N; lactam 4-C)	32 (≈ 22.5 µM)	96 (≈ 67.5 µM)	4 (≈ 2.81 µM)	4 (≈ 2.81 µM)	24 (≈ 16.9 µM)	96 (≈ 67.5 µM)	96 (≈ 67.5 µM)	256 (≈ 180 µM)
GENTAMICIN	0.75	0.75	0.75	0.75	1	0.75	1	384
CO[C@H]1/C=C/O[C@@]2(C)Oc3c(C)c(O)c4c(O)c(c(/C=N/N5CCN(C)CC5)c(O)c4c3C2=O)NC(=O)/C(C)=C\C=C\[C@H](C)[C@H](O)[C@@H](C)[C@@H](O)[C@@H](C)[C@H](OC(C)=O)[C@@H]1C [RIFAMPIN]	0.004 (≈ 0.00486 µM)	0.004 (≈ 0.00486 µM)	0.004 (≈ 0.00486 µM)	0.004 (≈ 0.00486 µM)	> 32	0.004 (≈ 0.00486 µM)	> 32	0.006 (≈ 0.00729 µM)
C[C@@H]1O[C@@H]1P(=O)(O)O [FOSFOMYCIN]	1 (≈ 7.24 µM)	96 (≈ 695 µM)	0.38 (≈ 2.75 µM)	0.38 (≈ 2.75 µM)	1.5 (≈ 10.9 µM)	96 (≈ 695 µM)	96 (≈ 695 µM)	> 1020
CCCCCCCCCC(=O)N[C@@H](Cc1c[nH]c2ccccc12)C(=O)N[C@H](CC(N)=O)C(=O)N[C@@H](CC(=O)O)C(=O)N[C@@H]1C(=O)NCC(=O)N[C@@H](CCCN)C(=O)N[C@@H](CC(=O)O)C(=O)N[C@H](C)C(=O)N[C@@H](CC(=O)O)C(=O)NCC(=O)N[C@H](CO)C(=O)N[C@@H]([C@H](C)CC(=O)O)C(=O)N[C@@H](CC(=O)c2ccccc2N)C(=O)O[C@@H]1C	0.75 (≈ 0.463 µM)	1.75 (≈ 1.08 µM)	0.5 (≈ 0.309 µM)	0.5 (≈ 0.309 µM)	0.5 (≈ 0.309 µM)	1.75 (≈ 1.08 µM)	2 (≈ 1.23 µM)	2 (≈ 1.23 µM)
